Test results: patent publication US5484911A, “Nucleoside 5'-diphosphate conjugates of ether lipids” (Health Research, Inc., priority 1993, dated 1996)

Assays:
herpes simplex = settings: cited from earlier work
respiratory syncytial = settings: cited from earlier work
[1] = test system: biosynthesis of phosphatidylinositol, phosphatidylglycerol or diphosphatidylglycerol; settings: rat liver subcellular fractions; release of nucleoside 5'-monophosphates; cited from earlier work
[2] = test system: human colorectal cancer xenografts and PSN-1 human pancreatic tumor; settings: mouse, in vivo; cited from earlier work
[3] = test system: colon 26 carcinoma, M5076 sarcoma, Lewis lung carcinoma, and C-1300 neuroblastoma; settings: mouse, in vivo; cited from earlier work
[4] = test system: M5076 sarcoma and Lewis lung carcinoma; settings: mouse, in vivo; cited from earlier work
L1210 leukemic cells = settings: cited from earlier work
[5] = mouse, in vivo; cited from earlier work
[6] = test system: rat mammary carcinoma SMT-2A; settings: alone and in combination with VP-16; cited from earlier work
L1210 and P388 leukemia = settings: mouse, in vivo; cited from earlier work
[7] = test system: myelomonocytic WEHI-3B leukemia; settings: mouse, in vivo; cited from earlier work
HIV-1 = settings: cited from earlier work
in vivo = assay: in vivo; parameters: species or system Female NIH-Swiss mice; settings: mouse, ip, 100 mg/kg
Experimental: FIG. 7. Mouse serum concentration of AZT following administration of AZT or AZTDP-DL-PTBA Female NIH-Swiss mice weighing 25-30 g were administered i.p. with AZT (100 mg/kg) or AZTDP-DL-PTBA (394 mg/kg, equivalent to 100 mg/kg AZT). Three mice were sacrificed at the designated time (up to 24 hr) and AZT in the serum was analyzed by a HPLC method.
Female NIH-Swiss mice weighing 25-30 g were administered intraperitoneally (i.p.) with 394 mg/kg of AZTDP-DL-PTBA (equivalent to 100 mg/kg AZT). Three mice were sacrificed at the designated time (up to 24 hours) and AZT in the serum was analyzed by an HPLC method. […] The intact conjugate level in the serum was unable to be checked by the HPLC method.

CCCCCCCCCCCCCCCCCCCCCCO [Example 1-Docosanol, 1-Docosanol]
herpes simplex viral replication (herpes simplex): inhibits herpes simplex and respiratory syncytial viral replication | respiratory syncytial viral replication (respiratory syncytial): inhibits herpes simplex and respiratory syncytial viral replication

AZT diphosphate diglyceride [AZTDP-DG]
substitution for CDP-DG in phospholipid biosynthesis [1]: can substitute to varying extents for CDP-DG

CCCCCCCCCCCCCCCCCCSCC(COP(=O)(O)OP(=O)(O)OC[C@H]1O[C@@H](n2ccc(N)nc2=O)[C@@H](O)[C@@H]1O)OC(=O)CCCCCCCCCCCCCCC (mixture of isomers) [Cytoros]
antitumor activity [2]: strong antitumor activity | therapeutic activity [3]: rather broad spectrum of therapeutic activity | antimetastatic activity [4]: displayed antimetastic activity | cytotoxicity to L1210 leukemic cells compared to normal mouse bone marrow cells (L1210 leukemic cells): selective cytotoxicity to L1210 leukemic cells | plasma ara-C concentration and intracellular retention of ara-CTP compared to ara-C [5]: more prolonged plasma ara-C concentration and intracellular retention of ara-CTP | primary and lymph node metastasis [6]: markedly retarded both primary and lymph node metastasis | effectiveness among ara-C conjugates tested (L1210 and P388 leukemia): the most effective of those tested | efficacy compared with ara-CDP-L-dipalmitin [7]: considerably higher efficacy than ara-CDP-L-dipalmitin

COCCCCCCCCCCCC(=O)O [13-Oxamyristic acid, 12-methoxydodecanoic acid]
effectiveness among myristate analogs (HIV-1): the most effective | reverse transcriptase activity, p24 levels, and syncytia formation (HIV-1): concentration-dependent decrease in reverse transcriptase activity, p24 levels, and syncytia formation

Cc1cn([C@H]2C[C@H](N=[N+]=[N-])[C@@H](CO)O2)c(=O)[nH]c1=O [AZT, 3'-azido-3'-deoxythymidine, reference compound]
half-life (in vivo): 18.6 min
